Like-named read-outs stand apart in the source and are kept apart here. Blank lines part the entries; values can stand above or below the compound they belong to.
Tests used:
nLightG [1] = biological target: T1, nLightG (Physeter macrocephalus, UniProt A0A2Y9EW94); test: Confocal imaging of nLightG in HEK293T cells; format: cell-based, sperm whale; conditions: for fluorescence response of nLightG to neurotransmitter: 10 μM, HEK293T cells
T1 sequence (A0A2Y9EW94 with tags, fused parts or gaps): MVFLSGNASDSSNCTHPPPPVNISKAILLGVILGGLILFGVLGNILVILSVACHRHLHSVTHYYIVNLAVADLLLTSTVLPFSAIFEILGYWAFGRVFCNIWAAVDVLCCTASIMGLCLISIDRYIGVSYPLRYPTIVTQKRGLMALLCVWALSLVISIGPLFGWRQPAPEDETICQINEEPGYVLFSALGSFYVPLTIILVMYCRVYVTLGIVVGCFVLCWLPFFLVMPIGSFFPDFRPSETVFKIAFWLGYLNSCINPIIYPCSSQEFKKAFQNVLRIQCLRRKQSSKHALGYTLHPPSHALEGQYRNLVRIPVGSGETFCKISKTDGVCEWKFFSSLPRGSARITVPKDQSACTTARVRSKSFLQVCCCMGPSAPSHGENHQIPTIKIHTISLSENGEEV

nLightR [2] = biological target: T2, nLightR (Physeter macrocephalus, UniProt A0A2Y9EW94); test: Confocal imaging of nLightR in HEK293T cells; format: cell-based, sperm whale; conditions: for fluorescence response of nLightR to neurotransmitter: 10 μM, HEK293T cells
T2 sequence (A0A2Y9EW94 with tags, fused parts or gaps): T1 sequence (A0A2Y9EW94 with tags, fused parts or gaps)

[3] = system: optogenetically-evoked NE release; test: Dual-site fiber photometry in LC and dHPC during optogenetic LC stimulation; format: in vivo, mouse; conditions: desipramine 10 μg/g i.p., awake mice
nLightG [4] = biological target: T1, nLightG; test: Ligand perfusion on acute brain slices; design: species or system sperm whale
[5] = system: tail-lift-induced NE release; test: Fiber photometry in lateral hypothalamus during tail-lifting; format: in vivo, mouse; conditions: trazodone 1 mg/kg or yohimbine 4 mg/kg, i.p., mice
GRABNE1m [6] = test: Confocal imaging of GRABNE1m in HEK293T cells; format: cell-based
GRABNE1m [7] = system: GRABNE1m
nLightR [8] = biological target: T2, nLightR; test: Ligand perfusion on acute brain slices; design: species or system sperm whale
nLightG [9] = biological target: T1, nLightG; test: Plate reader dose-response of nLightG in HEK293T cells; format: cell-based, sperm whale
nLightR [10] = biological target: T2, nLightR; test: Plate reader dose-response of nLightR in HEK293T cells; format: cell-based, sperm whale
human DRD1 = conditions: DA 10 μM, DRD1 (positive control)
[11] = biological target: T3, sperm whale-based indicator (Alpha-1 AR, red prototype) (Physeter macrocephalus, UniProt A0A2Y9EW94); test: Dose-response of the sperm whale-based red indicator prototype in HEK293T cells; format: cell-based
T3 sequence (A0A2Y9EW94 with tags, fused parts or gaps): T1 sequence (A0A2Y9EW94 with tags, fused parts or gaps)

GRABNE1m [12] = conditions: HEK293T cells
[13] = system: optogenetically-evoked NE signals; format: in vivo, mouse; conditions: yohimbine 4 mg/kg i.p., vHPC, isoflurane anesthesia, 5 Hz LC stimulation
[14] = system: green fluorescent NE indicator prototype (sperm whale Alpha-1 AR); test: Fluorescence response of the green NE indicator prototype; format: cell-based; conditions: green prototype with fluorescent protein module from dLight1.3b
nLightR [15] = biological target: T2, nLightR; test: Intracellular calcium signaling; format: cell-based, sperm whale; conditions: NE 10 μM, HEK293T
swAlpha-1 AR [16] = format: cell-based, sperm whale; conditions: NE 10 μM, wild-type swAlpha-1 AR, HEK293T
nLightG [17] = biological target: T1, nLightG; test: Intracellular calcium signaling; format: cell-based, sperm whale; conditions: NE 10 μM, HEK293T
swAlpha-1 AR [18] = test: NanoBiT complementation assay in HEK293T cells; format: cell-based, sperm whale; conditions: NE 10 μM
nLightR [19] = biological target: T2, nLightR; test: NanoBiT complementation assay in HEK293T cells; format: cell-based, sperm whale; conditions: NE 10 μM
nLightG [20] = biological target: T1, nLightG; test: NanoBiT complementation assay in HEK293T cells; format: cell-based, sperm whale; conditions: NE 10 μM
[21] = trazodone 10 μM after NE 50 μM, brain slices
[22] = after NE 10 μM, Trz 10 μM, HEK293T cells and neurons

SMILES: CNCCCN1c2ccccc2CCc2ccccc21 [desipramine]
effect on magnitude and decay kinetics of the nLightG response in LC [3]: significant increase

SMILES: COC(=O)[C@@H]1[C@H]2C[C@H]3c4[nH]c5ccccc5c4CCN3C[C@@H]2CC[C@@H]1O [yohimbine]
effect on tail-lift-induced GRABNE1m signals [5]: strongly attenuated | effect on tail-lift-induced response of nLightG [5]: increased | effect on tail-lift-induced response of nLightR [5]: increased | effect on optogenetically-evoked NE signals monitored via GRABNE1m [13]: significantly attenuated | effect on optogenetically-evoked NE signals reported by nLightG [13]: did not have a significant effect | effect of antagonist on NE-induced activation of GRABNE1m (GRABNE1m [6]): fully inactivated

More lines, main results first:

fluorescence response of nLightG to neurotransmitter (nLightG [1]): significant fluorescence response | fluorescence response of nLightR to neurotransmitter (nLightR [2]): significant fluorescence response
SMILES: CNC[C@H](O)c1ccc(O)c(O)c1 [epinephrine]

effect on NE-induced response (nLightG [4]; [21]): largely reversed | effect of antagonist on NE-induced activation of nLightG (nLightG [1]; [22]): fully reversed | effect on NE-induced response (nLightR [8]; [21]): largely reversed | effect of antagonist on NE-induced activation of nLightR (nLightR [2]; [22]): fully reversed
SMILES: O=c1n(CCCN2CCN(c3cccc(Cl)c3)CC2)nc2ccccn12 [trazodone]
effect on tail-lift-induced GRABNE1m signals [5]: no effect | effect on tail-lift-induced response of nLightG [5]: significantly reduced | effect on tail-lift-induced response of nLightR [5]: significantly reduced | effect of antagonist on NE-induced activation of GRABNE1m (GRABNE1m [6]; after NE 10 μM, Trz 100 nM, Yoh 100 nM, HEK293T): not affected | effect on NE-induced response (GRABNE1m [7]; [21]): no significant effect

response to DA relative to response to identical concentration of NE (nLightG [4]; 50 μM, mouse LH brain slices): about 12% | fluorescence response of nLightG to neurotransmitter (nLightG [1]): significant fluorescence response | agonist character at nLightG (nLightG [9]): partial agonist | EC50 of DA relative to that of NE (nLightG [9]; nLightG): approximately 30 fold | agonist character at nLightR (nLightR [10]): partial agonist | EC50 of DA relative to that of NE (nLightR [10]; nLightR): approximately 30 fold | response to DA relative to response to identical concentration of NE (nLightR [8]; 50 μM, mouse LH brain slices): ~3% | EC50 [11]: 21.5 µM | EC50 for DA relative to that for NE (GRABNE1m [12]): 8 fold | fluorescence response of nLightR to neurotransmitter (nLightR [2]): significant fluorescence response
SMILES: NCCc1ccc(O)c(O)c1 [DA, dopamine]
response to DA relative to response to NE (GRABNE1m [7]; 50 μM, mouse LH brain slices): about 19% | recruitment of β-arrestin-2 (human DRD1): significant recruitment | maximal response to DA as fraction of the response to NE (GRABNE1m [12]): 35%

intracellular Ca2+ concentration (nLightR [15]): did not induce a significant increase | fluorescence response of nLightG to neurotransmitter (nLightG [1]): significant fluorescence response | intracellular Ca2+ concentration (nLightG [17]): did not induce a significant increase | EC50 [11]: 0.574 µM | coupling to mini-Gq, mini-Gs or mini-Gi (nLightR [19]): did not lead to a significant coupling | recruitment of β-arrestin-2 (nLightR [19]): no recruitment | coupling to mini-Gq, mini-Gs or mini-Gi (nLightG [20]): did not lead to a significant coupling | recruitment of β-arrestin-2 (nLightG [20]): no recruitment | fluorescence response of nLightR to neurotransmitter (nLightR [2]): significant fluorescence response
SMILES: NC[C@H](O)c1ccc(O)c(O)c1 [NE, norepinephrine]
ΔF/F0 response [14]: approximately 1000% | intracellular Ca2+ concentration (swAlpha-1 AR [16]): significant increase | coupling to mini-Gi (swAlpha-1 AR [18]): no significant coupling | coupling to mini-Gq and mini-Gs (swAlpha-1 AR [18]): significant coupling

— PMC7615053 (Nature methods, 2023)
